PMC3557573 (Cancer chemotherapy and pharmacology, 2012)
Where “and” joins values, the source holds several entries; their conditions need not be identical. Equal entries are not always repeated. Where two headings read alike, the source gives them in different places.

Tests used:
[1] = tested on: PANC-1 pancreatic cancer xenograft; conditions: po 80 mg/kg qd × 21 ref 31; cited from earlier work
[2] = tested on: PC-3 human androgen-independent prostate cancer cells; conditions: PC-3 ref 34; cited from earlier work
[3] = β-glucuronidase treatment of urine; assay type: in vitro ADME, mice; conditions: 0-6 h urine, 37 °C, 24 h, 10,000 units
[4] = tested on: PANC-1 pancreatic cancer cells; assay: MTT assay, in vitro cytotoxicity; assay type: cell-based, human; conditions: PANC-1, 72 h
[5] = assay type: in vivo, C.B.-17 SCID mice
[6] = tested on: CFPAC-1 pancreatic cancer cells; assay: MTT assay, in vitro cytotoxicity; assay type: cell-based, human; conditions: CFPAC-1, 72 h
all 3 PKD isoforms = conditions: cited from earlier work
PC-3 xenografts = assay: Efficacy study in mice bearing PC-3 xenografts; assay type: in vivo, C.B.-17 SCID mice; conditions: 25 mg/kg/day iv qdx5, PC-3 xenografts
[7] = Plasma protein binding, Rapid Equilibrium Dialysis; assay type: in vitro ADME
[8] = tested on: PC-3 human androgen independent prostate cancer cells; assay: MTT assay, in vitro cytotoxicity; assay type: cell-based; conditions: PC-3, 72 h
[9] = Urinary and fecal excretion; conditions: for metabolite excreted in urine, % of dose: assuming equivalent UV absorption
[10] = Partial mass balance of kb-NB142-70; assay type: in vivo, mouse; conditions: 5 min
CFPAC-1 xenografts = assay: Efficacy study in mice bearing CFPAC-1 xenografts; assay type: in vivo, C.B.-17 SCID mice
[11] = cited from earlier work
[12] = day 6, 50 mg/kg q3dx3, CFPAC-1 xenografts

## CC[C@@H](N)CNc1ccnc(-c2cc(-c3cnn(C)c3)ccc2O)n1.Cl.Cl [CRT0066101]
[1]
  growth of PANC-1 xenograft: slowed the growth

## O=C1NCCSc2c1sc1ccc(O)cc21 [kb-NB142-70]
[2]
  EC50: 8 µM
[3]
  increase in parent on incubation of urine with β-glucuronidase: ~ 410%
[4]
  IC50: 34 ± 7 µM
[5]; 25 mg/kg iv
  AUC0→∞ Brain: 85 nmol·min/g
  AUC0→∞ Fat: 1681 nmol·min/g
  AUC0→∞ Heart: 236 nmol·min/g
  AUC0→∞ Kidney: 1712 nmol·min/g
  AUC0→∞ Liver: 266 nmol·min/g
  AUC0→∞ Lung: 377 nmol·min/g
  AUC0→∞ Plasma: 409 nmol·min/mL
  AUC0→∞ RBC: 288 nmol·min/mL
  AUC0→∞ Skeletal Muscle: 748 nmol·min/g
  AUC0→∞ Spleen: 288 nmol·min/g
  AUC0→∞ Tumor: 731 nmol·min/g
  AUC for plasma: 409 nmol·min/mL
  AUC for tumor: 731 nmol·min/mg
  AUC in fat: 1681 nmol·min/g
  clearance: 243 mL/min/kg
  plasma half-life: 6 min
  volume of distribution: approximately 2744 mL/kg
[5]; 25 mg/kg iv, at 5 min
  kidney Cmax: 63 nmol/g
  lung Cmax: 27 nmol/g
[5]; 25 mg/kg iv, observed at 10 min
  PC-3 xenograft (tumor) Cmax: 11.8 nmol/g and 12 nmol/g
[5]; 25 mg/kg iv, brain concentrations lower than plasma
  blood brain barrier crossing: appeared to cross the blood brain barrier
[5]; 5 min after 25 mg/kg iv
  Brain concentration: 6.34 ± 1.72 nmol/g
  Fat concentration: 9.92 ± 0.52 nmol/g
  Heart concentration: 14.5 ± 2.0 nmol/g
  Kidney concentration: 63.4 ± 13.7 nmol/g
  Liver concentration: 23.4 ± 1.1 nmol/g
  Lung concentration: 26.8 ± 3.3 nmol/g
  Plasma concentration: 36.9 ± 8.3 µM
  RBC concentration: 23.6 ± 1.7 nmol/mL
  Skeletal Muscle concentration: 18.4 ± 4.6 nmol/g
  Spleen concentration: 21.2 ± 3.8 nmol/g
  Tumor concentration: 5.62 ± 1.63 nmol/g
[5]; 10 min after 25 mg/kg iv
  Brain concentration: 5.07 ± 0.57 nmol/g
  Fat concentration: 8.93 ± 1.71 nmol/g
  Heart concentration: 13.1 ± 2.5 nmol/g
  Kidney concentration: 48.9 ± 15.8 nmol/g
  Liver concentration: 6.41 ± 0.56 nmol/g
  Lung concentration: 16.7 ± 1.2 nmol/g
  Plasma concentration: 23.4 ± 7.4 µM
  RBC concentration: 13.2 ± 2.7 nmol/mL
  Skeletal Muscle concentration: 15.5 ± 4.0 nmol/g
  Spleen concentration: 12.6 ± 2.5 nmol/g
  Tumor concentration: 11.8 ± 4.0 nmol/g
[5]; 15 min after 25 mg/kg iv
  Brain concentration: 2.40 ± 0.40 nmol/g
  Fat concentration: 6.65 ± 0.74 nmol/g
  Heart concentration: 6.23 ± 1.96 nmol/g
  Kidney concentration: 27.0 ± 12.4 nmol/g
  Liver concentration: 8.41 ± 0.29 nmol/g
  Lung concentration: 10.4 ± 4.9 nmol/g
  Plasma concentration: 10.3 ± 3.7 µM
  RBC concentration: 6.94 ± 2.26 nmol/mL
  Skeletal Muscle concentration: 9.45 ± 2.47 nmol/g
  Spleen concentration: 8.03 ± 3.39 nmol/g
  Tumor concentration: 5.22 ± 3.60 nmol/g
[5]; 30 min after 25 mg/kg iv
  Brain concentration: 0.84 ± 0.11 nmol/g
  Fat concentration: 2.80 ± 0.45 nmol/g
  Heart concentration: 2.60 ± 0.53 nmol/g
  Kidney concentration: 10.1 ± 2.0 nmol/g
  Lung concentration: 2.95 ± 1.69 nmol/g
  Plasma concentration: 2.0 ± 1.9 µM
  RBC concentration: 2.31 ± 1.70 nmol/mL
  Skeletal Muscle concentration: 2.28 ± 0.56 nmol/g
  Tumor concentration: 4.22 ± 1.92 nmol/g
[5]; 60 min after 25 mg/kg iv
  Fat concentration: 2.62 ± 1.35 nmol/g
  Kidney concentration: 2.87 ± 0.56 nmol/g
  Skeletal Muscle concentration: 1.05 ± 0.02 nmol/g
  Tumor concentration: 1.24 ± 0.95 nmol/g
[5]; 120 min after 25 mg/kg iv
  Fat concentration: 0.77 ± 0.13 nmol/g
  Kidney concentration: 3.76 ± 0.82 nmol/g
  Skeletal Muscle concentration: 0.95 ± 0.01 nmol/g
  Tumor concentration: 0.79 ± 0.32 nmol/g
[5]; 240 min after 25 mg/kg iv
  Fat concentration: 0.45 ± 0.06 nmol/g
  Kidney concentration: 1.78 ± 0.29 nmol/g
  Skeletal Muscle concentration: 1.00 ± 0.01 nmol/g
  Tumor concentration: 0.57 ± 0.60 nmol/g
[5]; 360 min after 25 mg/kg iv
  Fat concentration: 0.36 ± 0.03 nmol/g
  Skeletal Muscle concentration: 0.97 ± 0.06 nmol/g
  Tumor concentration: 1.21 ± 0.78 nmol/g
[5]; 960 min after 25 mg/kg iv
  Fat concentration: 0.85 ± 0.42 nmol/g
[5]; 1440 min after 25 mg/kg iv
  Fat concentration: 0.44 ± 0.07 nmol/g
[5]; read-out: Plasma Cmax, 25 mg/kg iv, observed at 5 min
  Cmax: 36.9 µM and 37 µM
[6]
  IC50: 5.2 ± 0.1 µM
All 3 PKD isoforms
  potency relative to CID755673: ≥ 2 fold
PC-3 xenografts
  effect on the growth of the tumor xenografts: no effect
  toxicity or changes in body weights: did not result in any toxicity or changes in the body weights
[7]; 0.3 μg/mL
  plasma protein bound: 78%
[7]; 3 μg/mL
  plasma protein bound: 78%
[8]
  IC50: 21 ± 6 µM
[9]; 0-6 h urine
  urinary excretion of parent, % of dose: 2.5%
  metabolite excreted in urine, % of dose: approximately 7.6%
[9]; 6-24 h urine
  urinary excretion of parent, % of dose: 0.1%
  metabolite excreted in urine, % of dose: ~1.2%
[9]; mouse, in vivo
  fecal excretion, % of dose: 0.67%
[10]
  administered dose detectable in plasma and collected tissues as parent compound: 12.5%
[10]; parent plus metabolite
  total administered dose detectable in plasma and collected tissues: 13.6 % of the dose

## O=C1NCCCc2c1oc1ccc(O)cc21 [CID755673, reference compound]
All 3 PKD isoforms; against all 3 PKD isoforms ref 33
  IC50: 0.2 to 0.3 µM

## Nc1ccn([C@@H]2O[C@H](CO)[C@@H](O)C2(F)F)c(=O)n1 [gemcitabine]
CFPAC-1 xenografts; 50 mg/kg q3dx3, CFPAC-1 xenografts, control 2.2 days
  tumor doubling time: 10.4 days
CFPAC-1 xenografts; [12]
  T/C of mean tumor volume: 22%
  mean tumor volume: 335 mm^3

## COc1ncc2sc3c(c2n1)SCCNC3=O [kmg-NB4-23]
[11]
  aqueous solubility: poor
